Among the test systems are Acinetobacter baumannii; Escherichia coli 170; Escherichia coli 4530; Candida albicans; Escherichia coli; Pseudomonas putida; Saccharomyces cerevisiae; Serratia marcescens.
Common to all, as to experiment: ≥ marks a high value that may be exact or a test limit, other limits are often not marked, values filed in µg/mL are converted to µM
Assay [1] deals with Enterobacter cloacae 2524.
Assay [2] has as its system Enterobacter cloacae 6780.
For assay [3], the system named is Escherichia coli ATCC 25922.
Assay [4] concerns Klebsiella pneumoniae 1625.
Assay [5] has as its system Klebsiella pneumoniae 913.
Assay [6] relates to Pseudomonas aeruginosa 4677.
Assay [7] concerns Acinetobacter calcoaceticus ATCC 2305-5.
In assay [8] the test system is Bacillus subtilis ICTA-07.
Assay [9] concerns Enterococcus faecalis WHO 14.
Assay [10] has as its system Micrococcus luteus ATCC 4698.
The subject of assay [11] is Pseudomonas aeruginosa ATCC 27853.
Assay [12] concerns Yersinia enterocolitica ATCC 9610.
Assay [13] deals with Bacillus subtilis KCTC 1021.
Assay [14] relates to Klebsiella pneumoniae ATCC 10031.
Assay [15] relates to Proteus mirabilis ATCC 25933.
For assay [16], the system named is Pseudomonas aeruginosa ATCC 9027.
Assay [17] has as its system Salmonella enterica subsp. enterica serovar Typhimurium ATCC 14028.
Assay [18] concerns Shigella dysenteriae ATCC 9752.
In assay [19] the test system is Staphylococcus epidermidis ATCC 12228.

In brackets after ≈: the same amount, converted by molar mass. Where only a bound is given, the exact number is not on record here.

`CC[C@H](C)[C@H](N)C(=O)N[C@@H](C)C(=O)N[C@@H](CO)C(=O)N[C@@H](CCCCN)C(=O)N[C@H](C(=O)N[C@@H](C)C(=O)N[C@@H](CC(N)=O)C(=O)N[C@H](C(=O)N[C@H](C(=O)N[C@@H](CCC(N)=O)C(=O)N[C@@H](CCCCN)C(=O)N[C@@H](CC(C)C)C(=O)N[C@@H](CCCCN)C(=O)N[C@@H](CCCN=C(N)N)C(=O)N[C@@H](CCCCN)C(=O)N[C@@H](C)C(=O)N[C@@H](CCCCN)C(=O)N[C@@H](CC(N)=O)C(=O)N[C@@H](C)C(=O)N[C@H](C(=O)N[C@@H](C)C(=O)O)C(C)C)C(C)C)[C@@H](C)O)C(C)C` [IASKVANTVQKLKRKAKNAVA]: the MIC against Acinetobacter baumannii was 8.84 µM (≈ 19.8 µg/mL); in [1], 6.25 µM (≈ 14 µg/mL); in assay [2] it was at least 50 µM; in the assay with Escherichia coli 170 it was 12.5 µM (≈ 28 µg/mL); in the assay on Escherichia coli 4530, at least 50 µM; in assay [3], over 50 µM. Moreover, the values for the MIC in [4], in [5] and in assay [6] were at least 50 µM, 25 µM (≈ 56 µg/mL) and at least 50 µM, respectively.
Consider `CC[C@H](C)[C@@H]1NC(=O)[C@H](CCCCN)NC(=O)[C@H](C(C)C)NC(=O)[C@H](CC(N)=O)NC(=O)[C@H](CC(=O)O)NC(=O)[C@@H]2CCCN2C(=O)[C@H](CC(C)C)NC(=O)CNC(=O)[C@H](Cc2ccc(O)cc2)NC(=O)[C@@H]2CSSC[C@@H]3NC(=O)[C@H](CCC(=O)O)NC(=O)[C@H]([C@@H](C)O)NC(=O)[C@H](CC(N)=O)NC(=O)[C@@H]4CSSC[C@H](NC(=O)[C@H](C)NC(=O)[C@@H]5CCCN5C(=O)[C@H](Cc5c[nH]c6ccccc56)NC(=O)[C@H](C)NC(=O)[C@H](CSSC[C@H](NC(=O)[C@H](CO)NC(=O)[C@H](Cc5ccc(O)cc5)NC(=O)[C@H](CCCCN)NC(=O)[C@@H](NC(=O)CNC(=O)[C@H](CCCN=C(N)N)NC(=O)[C@H](Cc5cnc[nH]5)NC(=O)[C@H](CCC(=O)O)NC(=O)[C@@H](NC(=O)[C@@H](NC(=O)[C@H](Cc5ccc(O)cc5)NC(=O)CNC(=O)[C@H](CC(=O)O)NC(=O)[C@@H](N)CCCCN)[C@@H](C)CC)[C@@H](C)CC)CSSC[C@@H](C(N)=O)NC(=O)[C@H](CCCCN)NC(=O)[C@H](CC(C)C)NC(=O)[C@H](CC(N)=O)NC(=O)[C@H](CC(N)=O)NC(=O)[C@H](CO)NC(=O)[C@H](CC(=O)O)NC(=O)[C@H](Cc5ccccc5)NC1=O)C(=O)N[C@@H](Cc1ccccc1)C(=O)N[C@@H](Cc1ccccc1)C(=O)NCC(=O)N[C@@H]([C@@H](C)O)C(=O)N[C@@H](CC(N)=O)C(=O)N[C@@H](CO)C(=O)N[C@@H](Cc1c[nH]c5ccccc15)C(=O)N4)NC(=O)[C@H](Cc1ccc(O)cc1)NC(=O)CNC(=O)[C@H](CO)NC(=O)[C@H](CO)NC(=O)CNC(=O)[C@H](CCCCN)NC(=O)[C@H](CCCCN)NC(=O)[C@H](CC(C)C)NC(=O)[C@H]([C@@H](C)O)NC3=O)C(=O)N[C@@H](Cc1c[nH]c3ccccc13)C(=O)N2` [KDGYIIEHRGCKYSCFFGTNSWCNTECTLKKGSSGYCAWPACWCYGLPDNVKIFDSNNLKC], for which the MIC in assay [7] was at least 43 µM; in [8] it was 22 µM (≈ 152 µg/mL); in assay [9], at least 34 µM; in assay [10], at least 43 µM; in [11], 77 µM (≈ 533 µg/mL); in assay [12] it was at least 49 µM.
For `CC[C@H](C)[C@H](NC(=O)[C@H](CC(C)C)NC(=O)[C@H](CO)NC(=O)[C@H](Cc1ccccc1)NC(=O)[C@H](CC(C)C)NC(=O)[C@@H](N)CO)C(=O)N[C@@H](CCCCN)C(=O)N[C@@H](C)C(=O)NCC(=O)N[C@@H](C)C(=O)N[C@@H](CCCCN)C(=O)N[C@@H](Cc1ccccc1)C(=O)N[C@@H](CC(C)C)C(=O)NCC(=O)N[C@@H](CCCCN)C(=O)N[C@@H](CC(N)=O)C(=O)N[C@@H](CC(C)C)C(=O)N[C@@H](CC(C)C)C(=O)N[C@@H](CCCCN)C(=O)N[C@@H](CCC(N)=O)C(=O)NCC(=O)N[C@@H](C)C(=O)N[C@@H](CS)C(=O)N[C@@H](Cc1ccc(O)cc1)C(=O)N[C@@H](C)C(=O)N[C@@H](C)C(=O)N[C@H]1CSSC[C@@H](C(=O)O)NC(=O)[C@H](CCC(N)=O)NC(=O)[C@H](CCCCN)NC(=O)[C@H](CO)NC(=O)[C@H](C)NC(=O)[C@H](CCCCN)NC1=O` [SLFSLIKAGAKFLGKNLLKQGACYAACKASKQC], the MIC in [13] is 14.4 µM (≈ 50 µg/mL); with Candida albicans it was over 57.8 µM; in the assay on Escherichia coli, 7.22 µM (≈ 25 µg/mL); in assay [14], 28.9 µM (≈ 99.9 µg/mL); in [10], 1.44 µM (≈ 5 µg/mL); in assay [15], at least 57.8 µM. The MIC was 14.4 µM (≈ 50 µg/mL) in assay [16]; 14.4 µM (≈ 50 µg/mL) with Pseudomonas putida; at least 57.8 µM against Saccharomyces cerevisiae; over 57.8 µM in assay [17]; at least 57.8 µM against Serratia marcescens; 7.22 µM (≈ 25 µg/mL) in assay [18]. The MIC in assay [19] was found to be 14.4 µM (≈ 50 µg/mL).

The values above are taken from DBAASP.
